Data on 2 compounds can be found in ChEMBL document CHEMBL3526158, “Contributions of arylacetamide deacetylase and carboxylesterase 2 to flutamide hydrolysis in human liver” (Drug Metab Dispos, 2012).

Molecules are shown by their SMILES.

In series [1] the target is T1, CES2 (cocaine esterase) (Homo sapiens, UniProt O00748).
T1 sequence (O00748 whole entry): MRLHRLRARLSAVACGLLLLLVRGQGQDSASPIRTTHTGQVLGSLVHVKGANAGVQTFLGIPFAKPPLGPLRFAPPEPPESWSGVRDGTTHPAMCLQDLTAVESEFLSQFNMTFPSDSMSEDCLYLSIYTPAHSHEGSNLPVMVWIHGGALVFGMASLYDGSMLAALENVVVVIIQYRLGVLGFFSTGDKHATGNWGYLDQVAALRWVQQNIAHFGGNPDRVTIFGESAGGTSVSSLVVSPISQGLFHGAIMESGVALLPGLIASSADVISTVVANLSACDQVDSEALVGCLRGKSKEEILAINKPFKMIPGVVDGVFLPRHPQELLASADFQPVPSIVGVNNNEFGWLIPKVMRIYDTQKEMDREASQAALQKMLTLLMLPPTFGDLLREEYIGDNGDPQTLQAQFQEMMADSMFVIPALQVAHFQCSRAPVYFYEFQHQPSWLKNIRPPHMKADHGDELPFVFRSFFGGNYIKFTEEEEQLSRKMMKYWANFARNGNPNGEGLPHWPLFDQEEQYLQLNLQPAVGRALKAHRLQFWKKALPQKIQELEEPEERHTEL
Description: Drug metabolism assessed as loperamide-mediated inhibition of human recombinant CES2-mediated compound hydrolysis measured as enzyme activity at 5 uM relative to control. It is filed as ADME. On the set-up: scale not given: the % may be the effect or the level left. Particulars: recombinant CES2, with loperamide (concentration not clearly stated), read-out: Activity.

Series [2] concerns the target T2, AADAC (arylacetamide deacetylase) (Homo sapiens, UniProt P22760).
T2 sequence (P22760 whole entry): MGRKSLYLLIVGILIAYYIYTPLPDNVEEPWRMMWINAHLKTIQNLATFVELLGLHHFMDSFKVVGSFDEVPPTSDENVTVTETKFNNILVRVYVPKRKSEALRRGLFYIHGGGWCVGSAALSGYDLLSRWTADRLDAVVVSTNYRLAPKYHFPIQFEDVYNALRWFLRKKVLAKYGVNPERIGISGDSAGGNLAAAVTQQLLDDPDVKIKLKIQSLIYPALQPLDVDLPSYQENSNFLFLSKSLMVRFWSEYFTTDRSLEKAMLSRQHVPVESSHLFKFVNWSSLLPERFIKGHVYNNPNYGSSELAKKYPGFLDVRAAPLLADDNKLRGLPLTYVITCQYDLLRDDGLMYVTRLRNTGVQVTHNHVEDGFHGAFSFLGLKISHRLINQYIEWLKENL
Kind of series: Drug metabolism assessed as AADAC-mediated compound hydrolysis in human liver homogenates at 50 uM. Particulars: read-out: Drug metabolism. In kind it is ADME, tissue-based.

The target in series [3] is T3, Cocaine esterase (Homo sapiens, UniProt O00748).
T3 sequence (O00748 whole entry): T1 sequence (O00748 whole entry)
Description: Inhibition of human recombinant CES2 assessed as compound hydrolysis.

Series [4] addresses T4, Arylacetamide deacetylase (Homo sapiens, UniProt P22760).
T4 sequence (P22760 whole entry): T2 sequence (P22760 whole entry)
Kind of series: Drug metabolism assessed as human recombinant AADAC-mediated compound hydrolysis expressed in SF21 cells at 50 uM. It is filed as ADME. The following applies: sf21, 50 µM.

In series [5] the target is T3, Cocaine esterase. Kind of series: Drug metabolism assessed as loperamide-mediated inhibition of CES2-mediated compound hydrolysis in human liver microsomes at 5 uM relative to control. It is filed as ADME. Further details: scale not given: the % may be the effect or the level left.
Series [6] addresses T4, Arylacetamide deacetylase. Kind of series: Drug metabolism assessed as human recombinant AADAC-mediated compound hydrolysis at 200 uM. It is filed as ADME.
In series [7] the target is T1, CES2 (cocaine esterase). Kind of series: Drug metabolism assessed as CES2-mediated compound hydrolysis in human liver homogenates at 50 uM. It is filed as ADME, tissue-based. Particulars: read-out: Drug metabolism.
Series [8] concerns the target T2, AADAC (arylacetamide deacetylase). Kind of series: Drug metabolism assessed as loperamide-mediated inhibition of human recombinant AADAC-mediated compound hydrolysis expressed in SF21 cells measured as enzyme activity at 5 uM relative to control. Particulars: with loperamide (concentration not clearly stated), read-out: Activity. On the set-up: scale not given: the % may be the effect or the level left. It is filed as ADME.

Series [9] shares this target. Description: Drug metabolism assessed as AADAC-mediated compound hydrolysis in human liver homogenates at 5 uM. Particulars: read-out: Drug metabolism. It is filed as ADME, tissue-based.
For series [10], the target named is T3, Cocaine esterase. Description: Drug metabolism assessed as human recombinant CES2-mediated compound hydrolysis at 5 uM. It is filed as ADME. The following applies: recombinant enzyme.
Series [11] has as its target T3, Cocaine esterase. Kind of series: Intrinsic clearance assessed as ratio of Vmax to Km for human recombinant CES2. The following applies: recombinant enzyme. In kind it is ADME.
Series [12] concerns the target T2, AADAC (arylacetamide deacetylase). Kind of series: Drug metabolism assessed as AADAC-mediated compound hydrolysis in human liver homogenates at 200 uM. It is filed as ADME, tissue-based. The following applies: read-out: Drug metabolism.
The target of series [13] is T3, Cocaine esterase. Description: Drug metabolism assessed as loperamide-mediated inhibition of CES2-mediated compound hydrolysis in human jejunum microsomes at 5 uM relative to control. On the set-up: scale not given: the % may be the effect or the level left. It is filed as ADME.
Series [14] deals with T3, Cocaine esterase. Kind of series: Drug metabolism assessed as loperamide-mediated inhibition of CES2-mediated compound hydrolysis in human liver cytosol at 5 uM relative to control. In kind it is ADME, tissue-based. On the set-up: scale not given: the % may be the effect or the level left.
Series [15] concerns the target T4, Arylacetamide deacetylase. Description: Drug metabolism assessed as human recombinant AADAC-mediated compound hydrolysis at 5 uM. It is filed as ADME.
The target of a further series is T5, Liver carboxylesterase 1 (Homo sapiens, UniProt P23141).
T5 sequence (P23141 whole entry): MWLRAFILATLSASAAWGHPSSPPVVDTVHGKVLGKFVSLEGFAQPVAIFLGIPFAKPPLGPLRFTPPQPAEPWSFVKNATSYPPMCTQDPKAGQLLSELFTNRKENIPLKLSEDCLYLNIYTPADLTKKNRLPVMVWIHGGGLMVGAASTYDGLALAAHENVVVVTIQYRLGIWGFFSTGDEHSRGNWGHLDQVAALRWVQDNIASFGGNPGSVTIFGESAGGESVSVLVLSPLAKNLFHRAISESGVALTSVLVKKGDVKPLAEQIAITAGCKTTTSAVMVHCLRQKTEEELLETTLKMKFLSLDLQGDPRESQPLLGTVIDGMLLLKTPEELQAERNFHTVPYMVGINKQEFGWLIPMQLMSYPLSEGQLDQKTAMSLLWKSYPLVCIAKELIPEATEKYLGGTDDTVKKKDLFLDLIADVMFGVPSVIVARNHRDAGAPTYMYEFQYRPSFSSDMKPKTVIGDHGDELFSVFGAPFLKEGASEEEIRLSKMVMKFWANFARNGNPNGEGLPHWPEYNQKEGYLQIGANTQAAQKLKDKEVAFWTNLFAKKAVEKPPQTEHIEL
Description: Drug metabolism assessed as human recombinant CES1-mediated compound hydrolysis at 5 uM. The following applies: recombinant enzyme. In kind it is ADME.

Series [16] addresses T1, CES2 (cocaine esterase). Kind of series: Drug metabolism assessed as CES2-mediated compound hydrolysis in human liver homogenates at 5 uM. It is filed as ADME, tissue-based. The following applies: read-out: Drug metabolism.
Series [17] has as its target T3, Cocaine esterase. Kind of series: Drug metabolism assessed as CES2-mediated compound hydrolysis in human liver homogenates at 5 to 200 uM. It is filed as ADME, tissue-based. Particulars: tissue homogenate.
Series [18] concerns the target T1, CES2 (cocaine esterase). Description: Drug metabolism assessed as CES2-mediated compound hydrolysis in human liver homogenates at 200 uM. In kind it is ADME, tissue-based. Particulars: read-out: Drug metabolism.
The target in series [19] is T3, Cocaine esterase. Kind of series: Drug metabolism assessed as human recombinant CES2-mediated compound hydrolysis at 200 uM. In kind it is ADME. Particulars: recombinant enzyme.
The target of series [20] is T3, Cocaine esterase. Kind of series: Drug metabolism assessed as human recombinant CES2-mediated compound hydrolysis at 50 uM. It is filed as ADME. The following applies: recombinant enzyme.
The target of series [21] is T2, AADAC (arylacetamide deacetylase). Description: Drug metabolism assessed as AADAC-mediated compound hydrolysis in human liver homogenates at 5 to 200 uM. In kind it is ADME, tissue-based. Particulars: read-out: Drug metabolism.
Series [22] addresses T3, Cocaine esterase. Description: Drug metabolism assessed as human recombinant CES2-mediated compound hydrolysis at 2 uM. In kind it is ADME. The following applies: recombinant enzyme.

In general, Ki refers to the equilibrium dissociation constant of an inhibitor or competing ligand from its target. Turning to `CC(C)C(=O)Nc1ccc([N+](=O)[O-])c(C(F)(F)F)c1` [FLUTAMIDE], the activity at 5 µM at CES2 (cocaine esterase) [1] was 7.7%; in series [8] it was 74.7%. The values for the metabolised at 50 µM (in [2]; at CES2 (cocaine esterase) [7]) were 53% and 47%, respectively. Besides, the Ki at Cocaine esterase [3] was found to be 2300 nM. Besides, the Drug metabolism in series [4] is 87.6 pmol/min/mg; in series [6] it was 389 pmol/min/mg; on Cocaine esterase [10], 16 pmol/min/mg; in [15], 3.1 pmol/min/mg; at Liver carboxylesterase 1, “metabolite_not_detected”; on Cocaine esterase [17] it was 170.4%. Besides, the results for the Drug metabolism at Cocaine esterase [19] and at Cocaine esterase [20] were 13.5 pmol/min/mg and 38.9 pmol/min/mg, respectively. For the same compound, the results for the Activity at Cocaine esterase [5], on Cocaine esterase [13] and at Cocaine esterase [14] were 22.9%, 18.6% and 15.7%, respectively. Further, the figures for the metabolised at 5 µM (in [9]; at CES2 (cocaine esterase) [16]) were 11.7% and 88.3%, respectively. Besides, the Ratio on Cocaine esterase [11] was 4.2 µL/min/mg. The metabolised at 200 µM in series [12] stood at 89.4%; on CES2 (cocaine esterase) [18], 10.6%. Also, in series [21], the metabolised at up to 200 µM came to 79.6%.

Regarding `CO[C@H]1/C=C/O[C@@]2(C)Oc3c(C)c(O)c4c(O)c(c(/C=N/N5CCN(C)CC5)c(O)c4c3C2=O)NC(=O)/C(C)=C\C=C\[C@H](C)[C@H](O)[C@@H](C)[C@@H](O)[C@@H](C)[C@H](OC(C)=O)[C@@H]1C` [RIFAMPIN], the figures for the Drug metabolism (in series [4]; on Cocaine esterase [22]) were 41.77 pmol/min/mg and 2.99 pmol/min/mg, respectively.
